The test system of data set [1] is Bacillus cereus, Staphylococcus aureus, Pseudomonas aeruginosa, Escherichia coli, Aspergillus flavus, Chrysosporium keratinophilum. In words: Agar plate disc-diffusion antimicrobial screening. The class given is cell-based. The conditions noted are these: 10 μL of 10 mg/mL in DMSO per disc, result in words only. The protocol:
The agar plate disc-diffusion method was applied. Sterilized filter papers (6 mm in diameter) were wetted with 10 μL of a solution of each compound to be tested, containing 10 mg/mL in DMSO, and the discs were allowed to air dry. The discs were then placed onto the surface of agar plates (nutrient agar for bacteria and Sabouraud's dextrose agar for fungi) and seeded with the test organism. Each plate contained 15 mL of the agar medium, previously seeded with 0.2 mL of the broth culture of each organism pre-grown for 18 h. The plates were incubated at 37° C. for 48 h, and 72 h for fungi. The inhibition zones were measured in mm. Discs impregnated with DMSO were used as a control, and its inhibition zone was subtracted from the tested compound actual inhibition zone.
In particular, the present N′-[(2-chlorobenzoyl)oxy]-1,3-benzothiazole-2-carboximidamide was screened against gram positive bacteria, namely Bacillus cereus and Staphylococcus aureus, and gram-negative bacterial strains, namely Pseudomonas aeruginosa and Escherichia coli, while the antifungal activity was screened against Aspergillus flavus and Chrysosporium keratinophilum.
A general note: A growth-free zone around the sample is the usual read-out of agar diffusion tests.

The subject of data set [2] is human osteosarcoma cells (MG-63). Nature of the data set: Cytotoxicity by SRB assay, MG-63 cells. The format is cell-based. To be noted: for IC50: mean±SD. The procedure:
(§1) The human prostate cancer cells (PC3) and human osteosarcoma cells (MG-63) were obtained from Nawah Scientific Inc. (Mokatam, Cairo, Egypt) and cultured in DMEM (Dulbecco's modified eagle's medium), Gibco, USA, supplemented with fetal bovine serum (FBS) at a concentration of 10% and 100 U/mL of penicillin and streptomycin (PS). The cells were incubated at 37° C. in a humidified environment that contained 5% CO2.
(§2) Cells were seeded in 96-well plates as aliquots of 100 μL cell suspension and incubated in a complete media for 24 h. Afterward, cells were treated with N′-[(2-chlorobenzoyl)oxy]-1,3-benzothiazole-2-carboximidamide at diverse concentrations ranging from 0.01 μM to 100 μM for 72 h. Then, cells were fixed at 4° C. for one hour with 150 μL of 10% trichloroacetic acid (TCA). After washing the cells five times with distilled water, 70 μL of sulforhodamine (SRB) solution (0.4% w/v) was added and incubated for 10 min at room temperature in a dark place. Cells were washed with 1% acetic acid three times and allowed to air-dry. Then, 150 μL of Tris pH 10.5 (10 mM) was added, and the absorbance was measured at 540 nm using a BMG LABTECH®-FLUOstar Omega microplate reader (Ortenberg, Germany). Half maximal inhibitory concentrations (IC50) values were calculated for each experiment using GraphPad Prism 6 software. IC50 values were reported as mean±SD.
(§3) The inhibition was calculated using the following equation: Inhibition %=100-Average Viability
(In SRB staining, fixed cells bind dye roughly in proportion to their protein.)

The test system of data set [3] is human prostate cancer cells (PC3). Nature of the data set: Cytotoxicity by SRB assay, PC3 cells. To be noted: for IC50: mean±SD. The class given is cell-based. The procedure:
as §1, §2, §3

SMILES strings stand for the structures.

A word on the inhibition: it is the relative decrease from the control value, in per cent. Broadly, the IC50 is the concentration that gives 50% inhibition. A lower IC50 goes with greater potency in that assay. The melting point is the temperature of the solid-liquid transition. For `N/C(Cc1nc2ccccc2s1)=N\OC(=O)c1ccccc1Cl`, the melting point was 110 to 112 °C. Besides, the antimicrobial activity entry in data set [1] is “excellent antimicrobial activities”. Further, the inhibition at 10 µg/mL in data set [2] (Homo sapiens, MG-63, 72 h, Osteosarcoma (MG-63), 10 μg/ml, 72 h) stood at 95%. This compound had an inhibition at 100 µg/mL in data set [2] (Homo sapiens, MG-63, 72 h, Osteosarcoma (MG-63), 100 μg/ml, 72 h) of 91.3%. This compound yielded an IC50 in data set [2] (Homo sapiens, MG-63, 72 h) of less than 4 µM. In addition, the IC50 in data set [2] (MG-63, 72 h) worked out at 3.45 µM. Moreover, the Inhibition % in data set [2] (Osteosarcoma (MG-63), 10 μg/ml, 72 h, listed as N'-[(2-chlorobenzoyl)oxy]-1,3-benzothiazole-2-carboximidamide) came to 90.17%. This compound had an inhibition at 10 µg/mL in data set [3] (Homo sapiens, PC-3, 72 h, Prostate cancer (PC-3), 10 μg/ml, 72 h) of 95%. In data set [3] (Homo sapiens, PC-3, 72 h, Prostate cancer (PC-3), 100 μg/ml, 72 h), this compound showed an inhibition at 100 µg/mL of 96%. Moreover, the IC50 in data set [3] (Homo sapiens, PC-3, 72 h) is less than 4 µM. In data set [3] (PC-3, 72 h), this compound came in with an IC50 of 2.69 ± 0.03 µM. The Inhibition % in data set [3] (Prostate cancer (PC-3), 10 μg/ml, 72 h, listed as N'-[(2-chlorobenzoyl)oxy]-1,3-benzothiazole-2-carboximidamide) is listed as 95.61%.
As to `COc1cccc2c1C(=O)c1c(O)c3c(c(O)c1C2=O)C[C@@](O)(C(=O)CO)C[C@@H]3O[C@H]1C[C@H](N)[C@H](O)[C@H](C)O1` [DOX, Doxorubicin, reference compound], the concentration for half-maximal inhibition (IC50) worked out at 9.4 ± 1.1 µM in data set [2] (Homo sapiens, MG-63, 72 h) and 7.6 ± 0.45 µM in data set [3] (Homo sapiens, PC-3, 72 h).

These data come from patent US11964954B1 (KING FAISAL UNIVERSITY, priority 2023, dated 2024).
